Assay results: patent US20250313576A1, “COMPOUND FOR PHOTOO[…] AND MEDICINAL COMPOSITION CONTAINING SAME” (The University of Tokyo, priority 2021, published 2025)

Tests used:
[1] = UV-vis spectrum, verification of absorption wavelength; type: physicochemical
Description: It can be said that the longer the wavelength of light used for a living body, the lower the cytotoxicity and the better the tissue permeability.

[2] = target: T1, aggregated tau overexpressed in HEK cells (Homo sapiens, UniProt P10636); assay: Intracellular photooxygenation reaction evaluated by Western blotting; type: cell-based; settings: for crosslinked product (more than 250 kDa) of the photooxygenation reaction: 595 nm light 15 minutes
T1 construct: expressed in transfected cells; host or cells: HEK cells (line called Fs17)
Experimental: An intracellular oxygenation reaction by the compounds PzT, OMe, Q, and J of the present invention was performed using HEK cells in which aggregated tau was overexpressed. Specifically, 10 uM of the compound of the present invention was added to a cell medium, and then irradiated with light at 595 nm for 15 minutes. After the reaction, viable cells were collected and lysed, and then the intracellular photooxygenation reaction was evaluated by measurement with Western blotting (FIG. 2). In a case where the compound of the present invention was not added, tau was detected between 75 kDa and 100 kDa by the 5A6 antibody that is a tau specific antibody, and a theoretical molecular weight of the overexpressed tau was about 70 kDa, and therefore, the tau was identified as a monomer.
Similarly, the compounds of the present invention C2OH, O, and O2 were also subjected to an intracellular oxygenation reaction. The cells overexpressing aggregated tau were incubated with a medium containing 1 μM of the compound of the present invention for 10 minutes. Thereafter, light of 595 nm was applied for 15 minutes. Reaction progress was identified and quantified by Western blotting measurements (FIG. 3). […] As a result, it was confirmed that a crosslinked product, which is one of products of a photooxygenation reaction, was detected in a region of more than 250 kDa on the right side of the lane to which the compound was added, whereas no crosslinked body was provided under non-light irradiation conditions, that is, on the left side of each lane in all the compounds, and the reaction proceeded in a light-dependent manner.

[3] = target: T2, overexpressed tau (Homo sapiens, UniProt P10636); assay: LC-MS/MS analysis of methionine oxidation of overexpressed tau after intracellular reaction; type: cell-based; settings: monomeric tau, trypsin digestion, FIG. 6
T2 construct: expressed in transfected cells; host or cells: HEK cells (line called Fs17)
Experimental: LC-MS/MS analysis was performed on the reaction product in order to confirm the production of side chain oxygenates that were difficult to specifically detect as a result of overlapping with unreacted substances in Western blotting. Since side chain oxygenates are mainly produced by oxidation of methionine side chains to sulfoxide, it was focused on 4 methionines contained in overexpressed tau having a total length of 412 amino acids. The intracellular protein after the reaction was separated according to the molecular weight by SDS-page, monomeric tau was cut out by trypsin enzyme digestion, and LC-MS/MS measurement was performed. A ratio of the detection intensity of the methionine oxidant was calculated from the sum of the detection intensities of the methionine reductant and the oxidant obtained from MS1 in the LC-MS/MS spectrum (FIG. 6).

[4] = 10 uM compound in cell medium, 5A6 antibody, FIG. 2

T1 sequence (P10636 2-412 isoform P10636-7): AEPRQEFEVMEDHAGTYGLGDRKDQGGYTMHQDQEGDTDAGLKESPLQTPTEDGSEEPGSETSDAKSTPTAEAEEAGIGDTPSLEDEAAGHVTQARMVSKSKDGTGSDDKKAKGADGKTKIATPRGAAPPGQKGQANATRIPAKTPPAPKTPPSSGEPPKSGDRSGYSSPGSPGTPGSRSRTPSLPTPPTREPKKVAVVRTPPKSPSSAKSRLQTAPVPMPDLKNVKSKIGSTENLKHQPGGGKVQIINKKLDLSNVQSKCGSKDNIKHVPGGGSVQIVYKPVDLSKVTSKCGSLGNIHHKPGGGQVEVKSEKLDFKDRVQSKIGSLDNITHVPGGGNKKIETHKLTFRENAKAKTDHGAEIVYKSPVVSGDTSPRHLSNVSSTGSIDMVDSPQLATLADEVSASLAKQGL
T2 sequence (P10636 1-412 isoform P10636-7): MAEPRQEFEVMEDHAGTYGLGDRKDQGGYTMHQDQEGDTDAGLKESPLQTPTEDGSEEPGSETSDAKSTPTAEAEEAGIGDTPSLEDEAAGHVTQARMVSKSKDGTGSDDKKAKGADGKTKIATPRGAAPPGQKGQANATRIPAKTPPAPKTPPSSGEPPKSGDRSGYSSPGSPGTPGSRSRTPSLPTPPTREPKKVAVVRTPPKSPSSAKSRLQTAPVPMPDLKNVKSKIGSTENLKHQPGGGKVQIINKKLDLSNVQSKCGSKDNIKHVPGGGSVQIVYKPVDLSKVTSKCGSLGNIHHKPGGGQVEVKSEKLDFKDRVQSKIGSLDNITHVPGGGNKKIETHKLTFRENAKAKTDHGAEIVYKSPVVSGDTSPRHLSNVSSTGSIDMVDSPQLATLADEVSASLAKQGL

| SMILES | λmax (nm), maximum absorption wavelength [1] [nm] | crosslinked product (more than 250 kDa) of the photooxygenation reaction [2, 4] | oxygenation level of methionine compared with control (Vehicle) [3] | photooxygenation activity relative to the compound Q ([2]; 1 μM compound, 595 nm 15 minutes, quantified by Western blotting) | crosslinked product (more than 250 kDa) of the photooxygenation reaction ([2]; 1 μM compound, 10 minutes incubation, light-dependent, FIG. 3) |
| --- | --- | --- | --- | --- | --- |
| CN1CCCc2cc(/C=C/C=C/c3nc4ncc(Br)nc4s3)ccc21 [Compound Q, 6-Bromo-2-((1E,3E)-4-(1-methyl-1,2,3,4-tetrahydroquinolin-6-yl)butadiene-1,3-dien-1-yl)thiazolo[4,5-b]pyrazine] | 500 | detected | did not change | – | – |
| OCCN1CCCc2cc(/C=C/C=C/c3nc4ncc(Br)nc4s3)ccc21 [Compound C2OH, 2-(6-((1E,3E)-4-(6-bromothiazolo[4,5-b]pyrazin-2-yl)butadien-1,3-dien-1-yl)-3,4-dihydroquinolin-1(2H)-yl)ethane-1-ol] | – | – | – | twice or more | detected |
| CN(C)c1ccc(/C=C/C=C/c2nc3ncc(Br)nc3s2)cc1 [Compound PzT, 4-((1E,3E)-4-(6-Bromothiazolo[4,5-b]pyrazin-2-yl)butadien-1,3-dien-1-yl)-N,N-dimethylaniline] | 468 | detected | – | – | – |
| CN(C)c1ccc(/C=C/C=C/c2nc3ccc(Br)nc3s2)cc1 [Compound PT, 4-((1E,3E)-4-(5-bromothiazolo[5,4-b]pyridin-2-yl)butadien-1,3-dien-1-yl)-N,N-dimethylaniline] | 437 | – | – | – | – |
| Brc1cnc2nc(/C=C/C=C/c3cc4c5c(c3)CCCN5CCC4)sc2n1 [Compound J, 6-Bromo-2-((1E,3E)-4-(2,3,6,7-tetrahydro-1H,5H-pyrido[3,2,1-ij]quinolin-9-yl)butadien-1,3-dien-1-yl)thiazolo[4,5-b]pyrazine] | 508 | detected | – | – | – |
| COc1cc(N(C)C)cc(OC)c1/C=C/C=C/c1nc2ncc(Br)nc2s1 [Compound OMe, 4-((1E,3E)-4-(6-Bromothiazolo[4,5-b]pyrazin-2-yl)butadien-1,3-dien-1-yl)-3,5-dimethoxy-N,N-dimethylaniline] | 495 | detected | – | – | – |
